Tests used:
human LPA1 receptor = molecular target: T1, human LPA1 receptor (Homo sapiens, UniProt Q92633); test: calcium flux assay (LPA Receptor Assays); type: cell-based
T1 construct: The 1.1 kb cDNA encoding the full-length coding region of human LPA1 was subcloned into the pRK5; expressed in transfected cells; host or cells: HEK293 or CHO cells
Procedure: A cDNA encoding the human LPA1 receptor was cloned by PCR from cDNA clone obtained from commercial sources. The nucleotide sequence was determined by sequencing and confirmed to be identical to the published human LPA1 sequence (An, 1997). The 1.1 kb cDNA encoding the full-length coding region of human LPA1 was subcloned into the pRK5 […] expression vector. Transfection of the cDNA into HEK293 or CHO cells is performed by using LipofectAmine 2000 (Invitrogen, USA). The full-length cDNA fragments for human LPA2 and LPA3 were obtained by PCR similarly and subcloned into pCDNA3.1 expression vector.
Transfected cells were cultured and subjected to LPA-induced SRE-luciferase reporter gene assay by using generally described methods (An, 1997). Intact HEK293 or CHO cells expressing the recombinant human LPA1 receptor were subjected to a [3H]-LPA ligand binding assay as described (An, 1998).
All compounds presented in the patent have IC50<20 μM in the calcium flux assay.

[1] = tested on: highly peritoneal metastatic pancreatic cancer cell line; details: highly peritoneal metastatic pancreatic cancer cell line (Yamada, 2004); cited from earlier work
breast cancer cells = details: animal models (Boucharaba, 2006); cited from earlier work

T1 sequence (Q92633 whole entry): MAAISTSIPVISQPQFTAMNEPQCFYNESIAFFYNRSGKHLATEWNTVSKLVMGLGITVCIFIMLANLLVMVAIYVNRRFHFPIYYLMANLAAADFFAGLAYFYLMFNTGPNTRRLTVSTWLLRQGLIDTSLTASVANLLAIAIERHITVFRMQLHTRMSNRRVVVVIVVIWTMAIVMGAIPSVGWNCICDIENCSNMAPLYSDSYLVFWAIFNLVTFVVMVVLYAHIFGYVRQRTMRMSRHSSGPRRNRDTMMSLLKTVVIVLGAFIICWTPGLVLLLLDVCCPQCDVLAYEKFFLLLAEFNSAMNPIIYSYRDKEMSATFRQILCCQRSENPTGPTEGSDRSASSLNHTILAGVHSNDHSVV

Row | SMILES | IC50 (human LPA1 receptor) [nM] | LPA-induced and ascites-induced invasion activity [1] | metastasis of breast cancer cells to bone (breast cancer cells)
1 | Cc1noc(-c2ccc(NS(=O)(=O)CCC(=O)O)cc2)c1NC(=O)OC(C)c1ccccc1Cl (stereo not drawn) [Compound 28, 3-(N-(4-(4-(((1-(2-chlorophenyl)ethoxy)carbonyl)amino)-3-methylisoxazol-5-yl)phenyl)sulfamoyl)propanoic acid] | 110 |  | 
2 | Cc1noc(-c2ccc(NS(C)(=O)=O)cc2)c1NC(=O)OC(C)c1ccc(F)cc1Cl (stereo not drawn) [Compound 42, 1-(2-chloro-4-fluorophenyl)ethyl(3-methyl-5-(4-(methylsulfonamido)phenyl)isoxazol-4-yl)carbamate] | 60 |  | 
3 | Cc1noc(-c2ccc(NC(=O)CCC(=O)O)cc2)c1NC(=O)OC(C)c1ccccc1Cl (stereo not drawn) [Compound 12, 4-((4-(4-(((1-(2-chlorophenyl)ethoxy)carbonyl)amino)-3-methylisoxazol-5-yl)phenyl)amino)-4-oxobutanoic acid] | 70 |  | 
4 | Cc1noc(-c2ccc(NC(=O)C3CC3)cc2)c1NC(=O)OC(C)c1ccccc1Cl (stereo not drawn) [Compound 7, 1-(2-chlorophenyl)ethyl(5-(4-(cyclopropanecarboxamido)phenyl)-3-methylisoxazol-4-yl)carbamate] | 1150 |  | 
5 | Cc1noc(-c2ccc(NC(=O)c3ccccc3)cc2)c1NC(=O)OC(C)c1ccccc1Cl (stereo not drawn) [Compound 16, 1-(2-chlorophenyl)ethyl(5-(4-benzamidophenyl)-3-methylisoxazol-4-yl)carbamate] | 2200 |  | 
6 | Cc1noc(-c2ccc(NS(C)(=O)=O)cc2)c1NC(=O)O[C@H](C)c1ccccc1Cl [Compound 19, (R)-1-(2-chlorophenyl)ethyl(3-methyl-5-(4-(methylsulfonamido)phenyl)isoxazol-4-yl)carbamate] | 55 |  | 
7 | Cc1noc(-c2ccc(NS(C)(=O)=O)cc2F)c1NC(=O)OC(C)c1ccccc1Cl (stereo not drawn) [Compound 32, 1-(2-chlorophenyl)ethyl(5-(2-fluoro-4-(methylsulfonamido)phenyl)-3-methylisoxazol-4-yl)carbamate] | 70 |  | 
8 | Cc1noc(-c2ccc(NC(=O)CCC(=O)O)cc2F)c1NC(=O)O[C@H](C)c1ccccc1Cl [Compound 50, (R)-4-((4-(4-(((1-(2-chlorophenyl)ethoxy)carbonyl)amino)-3-methylisoxazol-5-yl)-3-fluorophenyl)amino)-4-oxobutanoic acid] | 70 |  | 
9 | Cc1noc(-c2ccc(NS(C)(=O)=O)cc2)c1NC(=O)OC(C)c1ccccc1Cl (stereo not drawn) [Compound 1, 1-(2-chlorophenyl)ethyl(3-methyl-5-(4-(methylsulfonamido)phenyl)isoxazol-4-yl)carbamate] | 90 |  | 
10 | Cc1noc(-c2ccc3[nH]ncc3c2)c1NC(=O)OC(C)c1ccccc1Cl (stereo not drawn) [Compound 3, 1-(2-chlorophenyl)ethyl(5-(1H-indazol-5-yl)-3-methylisoxazol-4-yl)carbamate] | 550 |  | 
11 | Cc1noc(-c2ccc(CSCCC(=O)O)cc2)c1NC(=O)OC(C)c1ccccc1Cl (stereo not drawn) [Ki16425] |  | blocked | inhibited

— patent publication US8785442B2, “Compound as antagonist of lysophosphatidic acid receptor, composition, and use thereof” (Curegenix, Inc., priority 2011, dated 2014)
